These results are taken from patent US20090118135A1, “METHODS AND COMPOUNDS FOR REGULATING APOPTOSIS” (The Burnham Institute, priority 2007, published 2009).

Structures are written as SMILES.

This assay deals with T1, GST-Bfl-1 (Homo sapiens, UniProt Q16548).
T1 construct: lacking their C-terminal transmembrane domains (about the last 20 amino acids) (“ΔTM”); made in house; host or cells: XL-1 Blue E. coli, pGEX 4T-1
T1 sequence (Q16548 1-155 limits assumed): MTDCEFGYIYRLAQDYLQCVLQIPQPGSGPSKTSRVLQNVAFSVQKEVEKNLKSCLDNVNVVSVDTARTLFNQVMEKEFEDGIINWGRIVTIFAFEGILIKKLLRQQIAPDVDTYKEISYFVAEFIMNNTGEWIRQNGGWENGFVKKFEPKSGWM
The assay can be described thus: Bfl-1/FITC-Bid BH3 competitive fluorescence polarization assay. Conditions: primary HTS hits, MLSCN library (PubChem SIDs), Table 5B. In kind it is binding. How it is done:
A FPA was performed to determine the binding affinity of FITC-Bid BH3 peptide to Bcl-2 proteins. […] IC50 determinations were performed using GraphPad Prism software (GraphPad, Inc., San Diego, Calif.). FPA competition assays were performed using the same procedure described above, except that 100 nM of GST-Bfl-1 protein in a volume of 45 μl was incubated with 5 μl (50 μM) test compounds in DMSO per well for 30 min prior to addition of 50 μl (5 nM) FITC-Bid BH3 peptide. The final DMSO concentration was 5% when the reactions brought to fall volume of 100 μl. Fluorescence polarization was measured after 10 min. Compounds that reduced the fluorescence polarization by 50% were considered hits.
(In general: Polarisation of emitted light reports the rotation of a fluorescent probe.)
Turning to `CC(=O)c1c(COC(=O)c2ccco2)nc2ccccc2[n+]1[O-]` [Compound 863818], the “% Activity” value came out at 68.3% and the FRatio came to 0.88.

Turning to `C=CCn1c(SCC(=O)c2ccc(O)c(O)c2)nnc1-c1ccccc1OC` [Compound 863840], the “% Activity” value is given as 54.2% and the FRatio is 0.88.

As to `COc1ccc(OC)c(N2C(=O)[C@@H]3C(c4ccccc4Cl)=NO[C@@H]3C2=O)c1` [Compound 864036], the “% Activity” value is reported as 68.5% and the FRatio worked out at 0.89.

For the compound `CN1CCC2=C(C1)SC1C2C(NCc2ccco2)=Nc2nnnn21` (centres unmarked) [Compound 864825], the “% Activity” value stood at 96.4% and the FRatio is 1.26.

In the case of `COCCN1CCN2C(=NC3CC(NC(=O)NC4CCCCC4)CCC32)C1` (centres unmarked) [Compound 865452], the “% Activity” value was determined as 79.7% and the FRatio amounted to 0.73.

As for `O=C1NC(=O)[C@]2(Cc3ccccc3N3CCN(c4ccccc4)CC32)C(=O)N1c1ccccc1` (some centres unmarked) [Compound 865821], the “% Activity” value is on record as 53.1% and the FRatio was determined as 1.21.

As for `c1ccc(-c2nn3c(Cn4nnc5ccccc54)nnc3s2)nc1` [Compound 865899], the “% Activity” value was determined as 82.6% and the FRatio is reported as 1.32.

Consider `Cc1cc(Cl)ccc1OCC(=O)OC(C)C(=O)N(C)C` (centres unmarked) [Compound 867049], for which the “% Activity” value is on record as 53.3% and the FRatio was 0.78.

Consider `Cc1ccc(S(=O)(=O)NC(=O)c2cc(C)n(CCCn3ccnc3)c2C)cc1` [Compound 3173759], for which the “% Activity” value stood at 61.5% and the FRatio came to 0.99.

Regarding `O=C(CSc1ccc(Cl)cc1)c1ccco1` [Compound 3711335], the “% Activity” value was found to be 75.2% and the FRatio was found to be 0.83.

As for `Clc1ccc2nc(CN3CCCc4ccccc43)cn2c1` [Compound 3711377], the “% Activity” value worked out at 61.3% and the FRatio turned out to be 0.75.

As for `O=C(COC(=O)CN1C(=O)c2ccccc2C1=O)Nc1ncc(Cl)cc1Cl` [Compound 3711621], the “% Activity” value turned out to be 58.7% and the FRatio amounted to 1.36.

For the compound `Cc1c(Cl)cnc(NC(=O)COC(=O)C(NC(=O)c2ccco2)C(C)C)c1Cl` (centres unmarked) [Compound 3711777], the “% Activity” value worked out at 108.1% and the FRatio was 0.66.

Regarding `Cc1ccc(S(=O)(=O)NCC(=O)OCC(=O)Nc2ncc(Cl)cc2Cl)cc1` [Compound 3711819], the “% Activity” value is 63.4% and the FRatio was 0.8.

For `Cc1ccc(-n2c(SCc3cc(=O)n4ccsc4n3)nnc2-c2cccnc2)c(C)c1` [Compound 3712302], the “% Activity” value was 80.3% and the FRatio is on record as 0.96.

As for `COc1ccccc1NCCC(=O)OCC(=O)NCc1ccco1` [Compound 3712399], the “% Activity” value turned out to be 85.2% and the FRatio is listed as 0.95.

For the compound `O=C(COC(=O)c1cccs1)NCc1ccco1` [Compound 3712480], the “% Activity” value came to 79.7% and the FRatio was determined as 0.96.

`CCS(=O)(=O)N1Cc2ccccc2CC1C(=O)N1CCN(c2cccc(C)c2C)CC1` (centres unmarked) [Compound 3712504]: the “% Activity” value was determined as 54.7% and the FRatio was 0.25.

On to `Cc1cc(C)c(NC(=O)C2=CC3C(N=C4SC=CN43)S2)c(C)c1` (centres unmarked) [Compound 3712588], for which the “% Activity” value was 66.1% and the FRatio is listed as 1.05.

Regarding `Cc1ccc(OCCSc2nnc(-c3ccncc3)n2C)cc1` [Compound 3712590], the “% Activity” value is on record as 68.9% and the FRatio is 0.91.

For the compound `COc1ccc(S(=O)(=O)N2CCCC2C(=O)Nc2nnc(-c3cccnc3)s2)cc1` (centres unmarked) [Compound 3713012], the “% Activity” value came out at 50.9% and the FRatio is listed as 0.9.

As to `Cc1ccc(OCCC(=O)OCC(=O)Nc2ccc(Cl)cn2)cc1` [Compound 3713376], the “% Activity” value amounted to 54.8% and the FRatio is listed as 1.43.

For `O=C(c1cnccn1)N1CCc2ccccc21` [Compound 3713383], the “% Activity” value worked out at 80.1% and the FRatio is 0.72.

As to `FC(F)(F)c1cnc(Nc2ccc(N3CCOCC3)cc2)c(Cl)c1` [Compound 3713921], the “% Activity” value stood at 51.4% and the FRatio is recorded as 0.51.

`COc1ccc(NC(=O)c2cc(CN3C(=O)c4ccccc4C3=O)ccc2OC)cn1` [Compound 3713992]: the “% Activity” value was determined as 66.9% and the FRatio amounted to 1.47.

Turning to `CC(C)CN(C(=O)COC(=O)c1cc2c(s1)CCC2)C1CCS(=O)(=O)C1` (centres unmarked) [Compound 3714271], the “% Activity” value is 53.1% and the FRatio was found to be 0.67.

In the case of `CCOc1ccc(C(=O)OCC(=O)NCc2ccco2)cc1OCC` [Compound 3714498], the “% Activity” value worked out at 71.4% and the FRatio is 1.

As for `COc1cc(CC(=O)OCC(=O)Nc2ncc(Cl)cc2Cl)cc(OC)c1OC` [Compound 3714968], the “% Activity” value is 54% and the FRatio is on record as 1.42.

As for `CC(=N)/C(C#N)=C(/O)CSc1nnc(Nc2c(C)cccc2C)s1` [Compound 3715042], the “% Activity” value came to 63.1% and the FRatio is 0.63.

On to `O=C(NCc1ccco1)c1c2c(nc3ccccc13)CCC2` [Compound 3715091], for which the “% Activity” value came out at 62.4% and the FRatio was found to be 0.86.

Consider `O=C(COC(=O)c1cncc(Br)c1)NCc1ccco1` [Compound 3715512], for which the “% Activity” value amounted to 55.4% and the FRatio is listed as 0.95.

On to `Cn1c(C(C#N)C2=C(Cl)C(=O)N(c3ccccc3)C2=O)nc2ccccc21` (centres unmarked) [Compound 3716185], for which the “% Activity” value amounted to 89.8% and the FRatio was 0.68.

For the compound `C=CCn1c(SCc2cc(=O)n3ccsc3n2)nnc1C1CCCCC1` [Compound 3716212], the “% Activity” value came to 54.8% and the FRatio is given as 0.6.

As to `Cc1ccc(S(=O)(=O)N2CCCCC2)cc1C(=O)Nc1nc[nH]n1` [Compound 3716232], the “% Activity” value is reported as 50.5% and the FRatio was determined as 0.86.

Turning to `COCCn1c(SCC(=O)Nc2ncc(Cl)c(C)c2Cl)nc2ccccc21` [Compound 3717339], the “% Activity” value amounted to 64.7% and the FRatio amounted to 0.94.

In the case of `CC(=N)/C(C#N)=C(/O)CSc1nnc(NC(C)C)s1` [Compound 3717601], the “% Activity” value turned out to be 84.1% and the FRatio came to 0.47.

Turning to `CCn1ccc(C(=O)Nc2ccc(S(=O)(=O)Nc3ccccc3OC)cc2)n1` [Compound 4241115], the “% Activity” value is listed as 82% and the FRatio was 0.87.

Take `O=C(CSc1nc(O)c2ccccc2n1)c1ccc(O)c(O)c1` [Compound 4242102]: the “% Activity” value came to 64.2% and the FRatio worked out at 0.57.

In the case of `O=C(O)c1cccc(-n2cccc2/C=N/O)c1` [Compound 4243236], the “% Activity” value stood at 70% and the FRatio came to 0.86.

For `CSc1ccccc1NC(=O)c1noc2c1CCC2` [Compound 4244309], the “% Activity” value was 75.7% and the FRatio turned out to be 0.44.

As for `COc1ccc(C(N)CCc2ccc(C)o2)cc1` (centres unmarked) [Compound 4244526], the “% Activity” value came out at 67.6% and the FRatio came out at 0.84.

As for `Cc1c(C(=O)OCC2CCCO2)[nH]c2c1C(=O)CC(c1ccco1)C2` (centres unmarked) [Compound 4244684], the “% Activity” value amounted to 54.3% and the FRatio amounted to 0.79.

Turning to `COc1ccc(-c2coc3c(CN4CCCCC4)c(O)c(CN4CCCCC4)c(O)c3c2=O)cc1` [Compound 4244723], the “% Activity” value stood at 82.5% and the FRatio is 0.51.

Take `O=C(NCc1ccccn1)c1ccc2nc(-c3ccco3)c(-c3ccco3)nc2c1` [Compound 4245216]: the “% Activity” value came out at 107.1% and the FRatio turned out to be 1.18.

As for `COC(=O)c1ccccc1NC(=O)c1noc2c1CCC2` [Compound 4245926], the “% Activity” value is reported as 72.8% and the FRatio stood at 0.46.

Take `Cc1cc(C)c2cc3c(ccn3C3OC[C@H](O)[C@H](O)[C@H]3O)cc2n1` (some centres unmarked) [Compound 4247900]: the “% Activity” value came out at 52.1% and the FRatio was 1.1.

Regarding `COc1ccc(-c2nc3n(n2)C(c2cccnc2)C(C(N)=O)=C(C)N3)cc1` (centres unmarked) [Compound 4250160], the “% Activity” value worked out at 88.5% and the FRatio turned out to be 0.81.

Take `O=C(NCCCN1CCN(Cc2ccccc2)CC1)C1CCN(c2nnc(-n3cccc3)s2)CC1` [Compound 4250401]: the “% Activity” value is listed as 50.8% and the FRatio was 0.86.

For `COC(=O)CNc1c(-c2ccccn2)nc2ccc(Br)cn12` [Compound 4251133], the “% Activity” value was 51.2% and the FRatio worked out at 1.16.

Take `O=c1c2cc(N3CCOCC3)ccc2[nH]c(=S)n1CCCN1CCCCCC1` [Compound 4251175]: the “% Activity” value is 62.3% and the FRatio is 0.65.

Consider `C=CCNS(=O)(=O)c1nc(C)c(Cl)c(C)c1C#N` [Compound 4251530], for which the “% Activity” value was found to be 69.9% and the FRatio was 0.59.

For the compound `CCOC(=O)N1CCN(c2cc(NCCC(=O)O)c3c4c(onc24)-c2ccccc2C3=O)CC1` [Compound 4252106], the “% Activity” value amounted to 78.1% and the FRatio is listed as 0.86.
